Values joined by “and” are separate entries in the source; they are usually repeats but may differ in a detail not shown here. Equal entries are not always repeated.
How the values were obtained:
breast cancer tumors = experiment: kinetic DCE magnetic resonance imaging of contrast agent passively targeted to breast cancer tumors in live mice; format: in vivo; conditions: intravenous injection into tail vein
Experimental: Referring now to FIGS. 3A and 3B, shown therein are the results of kinetic DCE magnetic resonance imaging of an exogenous contrast agent (in this example Gadoteridol) that was passively targeted to breast cancer tumors in live mice. In both cases, Gadoteridol was intravenously injected into the tail vein of mice under anesthesia with isofluorane.
A first MR image 305 was taken at the time of injection. […] A second MR image 310 was taken at 5 minutes post injection.
As indicated by legend 322, the maximum signal intensity appears to reach its peak in plot 320 after 5 minutes. The exogenous agent was seen to penetrate and diffuse into the tumor core from the peripheries of the tumor.
A second MR image 345 was taken at 5 minutes post injection.
(§1) To obtain the images shown below in FIGS. 5A-5C and FIGS. 6A-6C, SCID mice (from Harlan Laboratories) were inoculated in the lower mammary fat pad with 3×106 human MDA-MB-231 triple negative metastatic breast cancer cells and housed for 3 weeks to grow tumors up to 1 cm in diameter (caliper measurements). […] Throughout the imaging sessions, the animals' breathing was monitored using a respiratory pad and a respiratory tracking system (when imaged on the 1T Aspect or 7T Bruker MRI system, ˜30 min per imaging session).

[1] = test system: human MDA-MB-231 breast cancer tumors; experiment: two-dimensional DESI-MS imaging of contrast agent distribution in excised human breast cancer tumor slices; format: in vivo, SCID mice; conditions: 5 minutes post injection, DESI-MS images vs H&E stained images
Experimental: All the DESI-MS experiments described herein were performed using a Thermo Fisher Scientific LTQ mass spectrometer (San Jose, Calif., USA). Data was acquired and processed using QualBrowser Xcalibur 2.0 (Thermo Fisher Scientific). Mass spectra were acquired as full scans, in the positive ion mode, over the mass to charge ratio range from m/z 500 to 900. Typical instrumental parameters used were 4.5 kV capillary voltage and 275° C. capillary temperature. An H2O-MeOH (1:1) solution was used as the spray solvent and delivered at the flow rate of 1.5 μL min-1. Methanol (MeOH) and ultra-pure water (H2O), both HPLC-MS grade, were purchased from Sigma Aldrich (Oakville, ON, Canada). The sprayer-to-surface distance was 1.0 mm, the sprayer to inlet distance was 6-8 mm, an incident spray was set at 54°, and a collection angle of 10° was used. […]
as §1, with “session). […]” for “session).”

breast cancer tumor = experiment: ICP-MS quantification of Gd in sections of breast cancer tumor after acid extraction; format: in vivo, mice; conditions: 200 μm thick tumor slice
Description: Referring now to FIG. 10B, shown therein are the results of quantitative analysis of the distribution of an exogenous agent in a section of a breast cancer tumor. Here, ICP-MS was used to quantify the amount of Gadolinium (Gd) element in a 200 um thick section of the breast cancer tumor shown in FIG. 10A. The distribution of all three contributing Gadoteridol adducts (discussed above with reference to FIG. 4) are shown overlaid on an image of the tumor section.
To validate the ion abundances shown in the DESI-MS image 1000, a 200 μm think-slice of tumor was sectioned into three areas (1025, 1030 and 1040). The total tissue weight in each section was determined using an analytical balance and Gadoteridol was acid extracted for ICP-MS quantification. Gadoteridol was extracted using excess volume (e.g., 3.5 mls for every 1 mg tissue material in two rounds) of 10% perchloric acid through mixing and vortexing followed by a 30 min centrifugation at 21,000G taking the supernatant that was then diluted 5× with double distilled water. For ICP-MS analysis both the standard Gadoteridol solutions and the extracted samples were taken up in excess 2% nitric acid (1000 fold dilution) and were subjected to ICP-MS quantification using a Nexlon 350 ICP-MS (Perkin-Elmer).

## CC(O)CN1CCN(CC(=O)[O-])CCN(CC(=O)[O-])CCN(CC(=O)[O-])CC1.[Gd+3] (centres unmarked) [Gadoteridol]
Breast cancer tumors
  time post injection at which the tumor site exhibits maximal contrast enhancement (MR signal intensity peak): 5 min and < 5 min
[1]
  signal in necrotic region of the breast cancer tumor: no Gadoteridol signal
Breast cancer tumor; first area 1025, ICP-MS
  absolute value of Gd element in tumor section, first area 1025: 54 pg
Breast cancer tumor; second area 1030, ICP-MS
  absolute value of Gd element in tumor section, second area 1030: 12.8 pg
Breast cancer tumor; third area 1040, ICP-MS
  absolute value of Gd element in tumor section, third area 1040: 27.5 pg

Source: patent publication US10441668B2, “System and method for enhanced mass spectrometry imaging” (University Health Network, priority 2014, dated 2019)
